# Patent US20110160056A1, “Triazole compounds, the use thereof and preparations containing these compounds” (BASF SE, priority 2008, published 2011)
# Columns and labels:
# Septoria tritici = assay: Activity against the Septoria leaf blotch pathogen in the microtiter test; assay type: cell-based; conditions: Zymoseptoria tritici, 168 h; 31 ppm active compound; absorption at 405 nm on day 7 after inoculation; relative to active compound-free control (100%)
# Experimental: The stock solution was pipetted into a microtiter plate (MTP) and diluted with water to the stated active compound concentration. An aqueous malt-based spore suspension of Septoria tritici was then added. The plates were placed in a water vapor-saturated chamber at temperatures of 18° C. Using an absorption photometer, the MTPs were measured at 405 nm on day 7 after the inoculation. The measured parameters were compared to the growth of the active compound-free control variant (100%) and the fungus- and active compound-free blank value to determine the relative growth in % of the pathogens in the individual active compounds.
# Botrytis cinerea = assay: Activity against the gray mold pathogen in the microtiter test; assay type: cell-based; conditions: 168 h, 31 ppm active compound, absorption at 405 nm on day 7 after inoculation, relative to active compound-free control
Compound,relative pathogen growth at 31 ppm (Septoria tritici) [%],relative pathogen growth at 31 ppm (Botrytis cinerea) [%]
Cc1cc(F)ccc1OCC(C(O)C(C)(C)C)n1cncn1 (stereo not drawn) [I.8],≤ 14,≤ 13
"CC(C)(C)C(O)C(CCCCOc1cc(Cl)ccc1F)n1cncn1 (stereo not drawn) [I.12b, 8-(5-chloro-2-fluorophenoxy)-2,2-dimethyl-4-[1,2,4]triazol-1-yloctan-3-ol]",≤ 14,≤ 13
CC(C)(C)C(O)C(COc1ccc(Cl)cc1Br)n1cncn1 (stereo not drawn) [I.32],–,≤ 13
CC(C)(C)C(O)C(COc1ccc(F)c(F)c1F)n1cncn1 (stereo not drawn) [I.40],≤ 14,≤ 13
CC(C)(C)C(O)C(COc1cccc(C(F)(F)F)c1F)n1cncn1 (stereo not drawn) [I.45],≤ 14,≤ 13
